Source: the NIST ThermoML archive (doi:10.1016/j.fluid.2014.01.019)

Experiment: xn = mol fraction of the nth substance listed
Conditions: 101 kPa, Liquid; for mass density: Vibrating tube method; for speed of sound: Frequency=2 MHz, Linear variable-path acoustic interferometer

Cc1ccc(Cl)cc1 [4-chlorotoluene] + OCc1ccccc1
Conditions | mass density, 298.15 K [kg/m3] | mass density, 303.15 K [kg/m3] | mass density, 308.15 K [kg/m3] | mass density, 313.15 K [kg/m3] | speed of sound, 303.15 K [m/s] | speed of sound, 313.15 K [m/s]
x2 = 0.0509 | 1063.78 | 1058.47 | 1053.11 | 1048.16 | 1292 | 1248
x2 = 0.1252 | 1062.11 | 1056.85 | 1051.49 | 1046.61 | 1327 | 1265
x2 = 0.1878 | 1060.69 | 1055.5 | 1050.13 | 1045.28 | 1350 | 1281
x2 = 0.2309 | 1059.7 | 1054.46 | 1049.19 | 1044.4 | 1370 | 1288
x2 = 0.3028 | 1058.05 | 1052.76 | 1047.63 | 1042.92 | 1394 | 1307
x2 = 0.3649 | 1056.62 | 1051.58 | 1046.32 | 1041.65 | 1415 | 1325
x2 = 0.4393 | 1054.9 | 1049.98 | 1044.75 | 1040.17 | 1439 | 1343
x2 = 0.5424 | 1052.48 | 1047.59 | 1042.61 | 1038.12 | 1468 | 1369
x2 = 0.6094 | 1050.91 | 1046.21 | 1041.23 | 1036.83 | 1480 | 1387
x2 = 0.6598 | 1049.71 | 1045.06 | 1040.21 | 1035.88 | 1493 | 1399
x2 = 0.7028 | 1048.68 | 1044.09 | 1039.35 | 1035.06 | 1502 | 1410
x2 = 0.7557 | 1047.41 | 1042.91 | 1038.31 | 1034.1 | 1506 | 1423
x2 = 0.8153 | 1045.97 | 1041.58 | 1037.16 | 1033.02 | 1511 | 1437
x2 = 0.8539 | 1045.04 | 1040.74 | 1036.42 | 1032.32 | 1513 | 1448
x2 = 0.9235 | 1043.33 | 1039.23 | 1035.1 | 1031.15 | 1514 | 1465
